Experimental data: ChEMBL document CHEMBL3885861, “Open TG-GATES”

Organism: Rattus norvegicus
Assay: Open TG-GATES - Regimen: Single
Format: toxicity, organism-based, Sprague-Dawley
Design: regimen Single, gender Male, age 6 weeks
Conditions: in vivo, iv, route intravenous injection; for KIDNEY_L / KIDNEY_R / KIDNEY_TOTAL: tissue Kidney; for LIVER: tissue Liver
[1] = 10 mg/kg, 3 h, tissue Blood, dose level Low
[2] = 10 mg/kg, 3 h, tissue Plasma, dose level Low
[3] = 10 mg/kg, 6 h, tissue Blood, dose level Low
[4] = 10 mg/kg, 6 h, tissue Plasma, dose level Low
[5] = 10 mg/kg, 9 h, tissue Blood, dose level Low
[6] = 10 mg/kg, 9 h, tissue Plasma, dose level Low
[7] = 10 mg/kg, 24 h, tissue Blood, dose level Low
[8] = 10 mg/kg, 24 h, tissue Plasma, dose level Low

CARBOPLATIN
Bas [1]: 0% | Eos [1]: 1% | Fbg [1]: 269.2 mg/dL | Hb [1]: 12.9 g/dL | Lym [1]: 80.4% | MCH [1]: 21.1 pg | MCHC [1]: 32% | MCV [1]: 66 fL | Mono [1]: 2.4% | PT [1]: 15.4 s | Plat [1]: 126.7 x10_4/uL | RBC [1]: 612.6 x10_4/ul | Ret [1]: 6.2% | WBC [1]: 92.7 x10_2/uL | KIDNEY_L (10 mg/kg, 3 h, dose level Low): 1 g | KIDNEY_R (10 mg/kg, 3 h, dose level Low): 0.9 g | KIDNEY_TOTAL (10 mg/kg, 3 h, dose level Low): 1.9 g | LIVER (10 mg/kg, 3 h, dose level Low): 9.7 g | ALP [2]: 1526 IU/L | ALT [2]: 43.6 IU/L | AST [2]: 85.4 IU/L | CRE [2]: 0.2 mg/dL | DBIL [2]: 0.002 mg/dL | GLC [2]: 185 mg/dL | IP [2]: 7.9 mg/dL | K [2]: 3.9 meq/L | LDH [2]: 228.2 IU/L | PL [2]: 124.8 mg/dL | RALB [2]: 2.9 g/dL | TBIL [2]: 0.016 mg/dL | TC [2]: 68.4 mg/dL | TG [2]: 55.2 mg/dL | TP [2]: 5.2 g/dL | gamma-GTP [2]: 1.2 IU/L | TERMINAL_BW (10 mg/kg, 6 h, dose level Low): 204.9 g | APTT [3]: 24.2 s | Bas [3]: 0% | Eos [3]: 1% | Fbg [3]: 286.8 mg/dL | Ht [3]: 41.2% | Lym [3]: 77.6% | MCH [3]: 20.6 pg | MCHC [3]: 32.2% | MCV [3]: 64 fL | Mono [3]: 2.8% | Neu [3]: 17.8% | PT [3]: 15.9 s | Plat [3]: 131 x10_4/uL | RBC [3]: 643.6 x10_4/ul | Ret [3]: 6.3% | WBC [3]: 115.8 x10_2/uL | KIDNEY_L (10 mg/kg, 6 h, dose level Low): 1 g | KIDNEY_R (10 mg/kg, 6 h, dose level Low): 1 g | KIDNEY_TOTAL (10 mg/kg, 6 h, dose level Low): 2 g | LIVER (10 mg/kg, 6 h, dose level Low): 9.1 g | ALP [4]: 1291.4 IU/L | ALT [4]: 43.4 IU/L | BUN [4]: 10 mg/dL | CRE [4]: 0.2 mg/dL | DBIL [4]: 0 mg/dL | GLC [4]: 180.6 mg/dL | IP [4]: 9.1 mg/dL | K [4]: 4.3 meq/L | LDH [4]: 174.2 IU/L | PL [4]: 134.6 mg/dL | RALB [4]: 3 g/dL | TBIL [4]: 0.016 mg/dL | TC [4]: 72.8 mg/dL | TG [4]: 76.2 mg/dL | TP [4]: 5.5 g/dL | gamma-GTP [4]: 1.6 IU/L | TERMINAL_BW (10 mg/kg, 9 h, dose level Low): 197.5 g | APTT [5]: 25.3 s | Bas [5]: 0% | Eos [5]: 1% | Fbg [5]: 294.6 mg/dL | Ht [5]: 40.2% | Lym [5]: 73% | MCHC [5]: 32.6% | Mono [5]: 2.4% | Neu [5]: 23.4% | PT [5]: 15.7 s | Plat [5]: 131.4 x10_4/uL | RBC [5]: 644.2 x10_4/ul | Ret [5]: 5.7% | WBC [5]: 86.3 x10_2/uL | KIDNEY_L (10 mg/kg, 9 h, dose level Low): 0.9 g | KIDNEY_R (10 mg/kg, 9 h, dose level Low): 0.9 g | KIDNEY_TOTAL (10 mg/kg, 9 h, dose level Low): 1.8 g | LIVER (10 mg/kg, 9 h, dose level Low): 8 g | ALP [6]: 1344 IU/L | ALT [6]: 37.4 IU/L | AST [6]: 77 IU/L | BUN [6]: 11.2 mg/dL | CRE [6]: 0.2 mg/dL | DBIL [6]: 0 mg/dL | GLC [6]: 177.8 mg/dL | IP [6]: 9.3 mg/dL | K [6]: 4.4 meq/L | LDH [6]: 180.2 IU/L | Na [6]: 140 meq/L | PL [6]: 121 mg/dL | RALB [6]: 2.9 g/dL | TBIL [6]: 0.012 mg/dL | TC [6]: 71.8 mg/dL | TG [6]: 44.6 mg/dL | TP [6]: 5.3 g/dL | gamma-GTP [6]: 1.4 IU/L | TERMINAL_BW (10 mg/kg, 24 h, dose level Low): 204.3 g | APTT [7]: 23.3 s | Bas [7]: 0% | Eos [7]: 0.6% | Fbg [7]: 298.2 mg/dL | Ht [7]: 40.6% | Lym [7]: 80.2% | MCHC [7]: 32.1% | MCV [7]: 63.8 fL | Mono [7]: 2.8% | PT [7]: 16.6 s | Plat [7]: 122.3 x10_4/uL | RBC [7]: 637.8 x10_4/ul | Ret [7]: 4.7% | WBC [7]: 78.9 x10_2/uL | KIDNEY_L (10 mg/kg, 24 h, dose level Low): 0.9 g | KIDNEY_R (10 mg/kg, 24 h, dose level Low): 1 g | KIDNEY_TOTAL (10 mg/kg, 24 h, dose level Low): 1.9 g | LIVER (10 mg/kg, 24 h, dose level Low): 9 g | ALP [8]: 1748.8 IU/L | AST [8]: 69.8 IU/L | BUN [8]: 15.6 mg/dL | CRE [8]: 0.2 mg/dL | DBIL [8]: 0 mg/dL | GLC [8]: 180.8 mg/dL | IP [8]: 7.2 mg/dL | K [8]: 4.5 meq/L | LDH [8]: 208.6 IU/L | PL [8]: 140.6 mg/dL | RALB [8]: 3.1 g/dL | TBIL [8]: 0.006 mg/dL | TC [8]: 74.2 mg/dL | TG [8]: 75.6 mg/dL | TP [8]: 5.5 g/dL | gamma-GTP [8]: 1.6 IU/L | TERMINAL_BW (30 mg/kg, 3 h, dose level Middle): 205.5 g
